Source: EP0021229A1, “Arylazo compounds, their preparation and their use” (priority 1979, dated 1981)

Biological target: T1, prostaglandin-15-dehydrogenase (Homo sapiens, UniProt P15428)
T1 construct: from tissue
T1 sequence (P15428 1-266): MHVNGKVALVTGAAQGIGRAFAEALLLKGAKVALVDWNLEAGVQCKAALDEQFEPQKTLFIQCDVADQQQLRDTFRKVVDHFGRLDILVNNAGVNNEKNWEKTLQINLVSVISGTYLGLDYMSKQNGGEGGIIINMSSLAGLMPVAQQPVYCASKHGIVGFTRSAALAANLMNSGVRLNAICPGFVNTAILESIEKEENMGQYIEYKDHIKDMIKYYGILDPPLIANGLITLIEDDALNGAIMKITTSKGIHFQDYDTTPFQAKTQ
Test: Inhibition of prostaglandin F2a inactivation in cell-free organ preparations (Hoult and Moore)
Assay type: biochemical
Conditions: in vitro, radioactive prostaglandin F2a incubated with cellfree preparations of different organs; compared to sulfasalazine (compound A)
Description: Radioactive prostaglandin F2a was incubated with cellfree preparations of different organs (containing prostaglandin-15-dehydrogenase) according to Hoult and Moore, British Journal of Pharmacology, Vol. 61 (1977), p. 615. After a suitable time the prostaglandins were extracted and separated by chromatography. Then the amount of remaining prostaglandin F 2a was compared with the amounts of metabolites. The inhibiting effect was obtained by the addition of the compounds according to the invention during the incubation and comparison with control experiments without such addition. The results may be represented either as a concentration giving 50% inhibition of the prostaglandin inactivation, or as an inhibition in per cen at a certain concentration of the studied compound. In the following table the results for some compounds according to the invention are shown compared to the known drug sulfasalazine.

activity (inhibition of the prostaglandin inactivation) relative to the known compound A | Structure (SMILES) | activity (inhibition of the prostaglandin inactivation) compared with compound A, in words
 | O=C(O)Cc1cc(N=Nc2ccccc2)ccc1O [C, 2-hydroxy-5-phenylazo-benzeneacetic acid] | significantly more active than compound A
50 times | O=C(O)Cc1cc(N=Nc2ccc(S(=O)(=O)Nc3ccccn3)cc2)ccc1O [compound B] | 
